In patent publication US7595345B2, “Vitamin D receptor modulators” (Eli Lilly and Company, priority 2003, dated 2009):
“And” between values parts separate entries of the source, which are not always exact repeats. Equal values may be shown once.

Tests used:
rat osteocalcin promoter = test: OCN (osteocalcin) promoter assay; format: cell-based; conditions: RG-15 (ROS 17/2.8) cells, 48 hr treatment, luciferase
Experimental: 3. The OCN (Osteocalcin) Promoter Assay
The OCN Promoter Assay is an indicator and marker for osteoporosis. Desired assay results are EC50 less than or equal to […]. Preferred assay results are less than […].
(3) Materials and Method for the OCN Promoter Assay:
The activation of osteocalcin by VDR ligands was evaluated in a rat osteoblast-like cell line RG-15 (ROS 17/2.8) stably expressing rat osteocalcin promoter fused with luciferase reporter gene. The stable cell lines were established as reported before (Activation of Osteocalcin Transcription involves interaction of protein kinase A- and Protein kinase C-dependent pathways. Boguslawski, G., Hale, L. V., Yu, X.-P., Miles, R. R., Onyia, J. E., Santerre R. F., Chandrasekhar, S. J. Biol. Chem. 275, 999-1006, 2000). Confluent RG-15 cells maintained in DMEM/F-12 medium (3:1) containing 5% FBS, 300 µg/ml G418 and at 37° C. under 5% CO2/95% air atmosphere were trypsinized (0.25% trypsin) and plated into white opaque 96-well cell culture plates (25000 cells/well). After 24 hr, cells (in DMEM/F-12 medium+2% FBS) were treated with various concentrations of compounds, dissolved in DMSO. The final DMSO concentration remained at 0.01% (v/v). After 48 hr treatment, the medium was removed, cells were lysed with 50 µl of lysis buffer (From Luciferase reporter assay system, Roche Diagnostics, Indianapolis, Ind.) and assayed for luciferase activity using the Luciferase Reporter Gene Assay kit from Boehringer Mannheim as per manufacturer's specifications.

[1] = molecular target: T1, RXR-VDR heterodimer (Gal4-RXR-DEF and VP16-VDR-LBD) (Homo sapiens, UniProt P11473); test: RXR-VDR heterodimerization assay (SaOS-2 cells); format: cell-based; conditions: luciferase reporter pFR-LUC
T1 construct: Add the Gal4-RXR-DEF and VP16-VDR-LBD; expressed in transfected cells; host or cells: SaOs-2 cells
T1 sequence (P11473 127-423 limits assumed): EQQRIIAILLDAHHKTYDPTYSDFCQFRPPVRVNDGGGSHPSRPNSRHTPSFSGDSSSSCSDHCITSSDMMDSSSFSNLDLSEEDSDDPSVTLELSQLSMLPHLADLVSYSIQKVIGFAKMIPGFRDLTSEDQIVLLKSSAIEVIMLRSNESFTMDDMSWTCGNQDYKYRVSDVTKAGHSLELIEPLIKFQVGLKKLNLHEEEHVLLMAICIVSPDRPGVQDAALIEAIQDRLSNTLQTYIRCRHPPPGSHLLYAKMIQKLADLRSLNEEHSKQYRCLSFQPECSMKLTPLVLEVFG
T1 sequence (P19793 201-462 partner limits assumed): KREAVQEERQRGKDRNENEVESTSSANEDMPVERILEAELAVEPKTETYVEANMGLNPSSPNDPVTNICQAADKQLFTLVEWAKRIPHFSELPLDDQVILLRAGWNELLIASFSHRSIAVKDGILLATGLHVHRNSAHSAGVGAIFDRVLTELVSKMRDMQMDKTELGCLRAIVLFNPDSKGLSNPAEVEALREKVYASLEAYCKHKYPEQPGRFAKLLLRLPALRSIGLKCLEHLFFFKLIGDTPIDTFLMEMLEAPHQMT
From the text: 1. The RXR-VDR Heterodimer Assay:
This assay provides the VDR activity of a test compound.
This is an in vitro efficacy assay for psoriasis, abscess and adhesion. Psoriasis involves both keratinocytes and immune cells. IL-10 is a unique cytokine because it is anti-inflammatory and immunosuppressive. This assay tells us whether a VDRM is able to function as an agonist in PBMCs (primary blood mononuclear cells) or not. […] 7. Other Compound Assay Standards An alternative measure of the efficacy of compounds of the invention for treatment of osteoporosis is a numerical ratio calculated as follows: • Dose Threshold needed to induce hypercalcemia • divided by • Dose Threshold needed for bone efficacy An alternative measure of the efficacy of compounds of the invention for treatment of psoriasis is a numerical ratio calculated as follows: • Dose Threshold needed to induce hypercalcemia • divided by • Dose Threshold needed to induce keratinocyte proliferation For the above ratios, Dose Thresholds are determined from dose response curve data. 8. The CaT1 (Calcium Transport Protein 1) Assay The CaT1 Assay is an indicator for the undesirable condition of hypercalcemia. […] Preferred assay results are greater than 1000 nM. Details of the Assay Methods: (1) Materials and Method for RXR-VDR Heterodimerization Assay: Transfection Method:
Grow SaOs-2 cells in T-152 cm^2 culture flasks in growth media.
Keep the density at 5-6×10^5 cells/ml
Passage cells 1:3 twice a week
Resuspend cells in plating media and transfer into growth media.
Transfection/Treatment Media:
D-MEM Low Glucose Without Phenol Red only
T-152 cm^2 culture flask:
Use well plate to plate cells
Use Deep well plate sterile to make up treatment media.
Luciferase Assay Reagent:
Use Steady-Glo Luciferase Reagent from Promega (Cat #E2550) Consists of:
a. E2533 Assay Substrate, lyophilized product and
Aspirate media from culture flask, rinse cells with HBSS and aspirate.
Add trypsin and incubate. […]
Read the plates after drug treatment […]
Count each well using a Luminescence counter, Top Count NXT by Packard […]

CCC(O)(CC)COc1ccc(C(CC)(CC)c2ccc(C(=O)NCC(=O)O)c(C)c2)cc1C [Ex. 3, (4-{1-ethyl-1-[4-(2-ethyl-2-hydroxy-butoxy)-3-methyl-phenyl]-propyl}-2-methyl-benzoylamino)-acetic acid] was tested, and the EC50 (rat osteocalcin promoter) was 19.7 nM, the EC50 (rat osteocalcin promoter; Rattus norvegicus, 48 h) was 16.8 nM and the EC50 [1] was 301 nM and 149 nM.
In the case of CCC(CC)(c1ccc(OCC(O)(C(C)C)C(C)C)c(C)c1)c1ccc(C(=O)NCC(=O)O)c(C)c1 [Ex. 4, (4-{1-Ethyl-1-[4-(2-hydroxy-2-isopropyl-3-methyl-butoxy)-3-methyl-phenyl]-propyl}-2-methyl-benzoylamino)-acetic acid], the EC50 (rat osteocalcin promoter) is reported as 27.7 nM, the EC50 (rat osteocalcin promoter; Rattus norvegicus, 48 h) is reported as 21 nM and the EC50 [1] is reported as 257 nM and 127 nM.
